Where two headings read alike, the source gives them in different places.
Assays:
HeLa/TK^− = test: Cytostatic assay, HeLa/TK^− cells; assay type: cell-based; conditions: for CC50: read-out: CC50 HeLa/TK^−; for IC50: read-out: IC50 HeLa/TK^−
From the text: (§1) The cell lines employed were L1210/0 (a leukemia cell line), FM3A/0 (a breast cancer cell line), Cem/0 (an acute lymphoblastic leukemia cell line) and HeLa (a cervical cell line).

Cem/0 = test: Cytostatic assay, CEM/0 cells; assay type: cell-based, human; conditions: for CC50: read-out: CC50 Cem/0; for IC50: read-out: IC50 Cem/0
From the text: as §1

Cem/TK^− = test: Cytostatic assay, thymidine kinase-deficient CEM/TK^− cells; assay type: cell-based, human; conditions: for CC50: read-out: CC50 Cem/TK^−; for IC50: read-out: IC50 Cem/TK^−
HeLa = test: Cytostatic assay, HeLa cells; assay type: cell-based; conditions: for CC50: read-out: CC50 HeLa; for IC50: read-out: IC50 HeLa
From the text: as §1

L1210/0 = test: Cytostatic assay, L1210/0 cells; assay type: cell-based, murine
From the text: as §1

L1210.Hyor = test: Cytostatic assay, Mycoplasma hyorhinis-infected L1210 cells; conditions: for % Retention: CC50 L1210 × 100 ÷ CC50 L1210/Hyor; for CC50: L1210, read-out: CC50 L1210/Hyor
Outline: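 Suspension L1210/0 murine leukaemia cells infected with M. hyorhinis, seeded at 60,000 cells/well with test compound in DMEM/10% FBS and grown 48 h at 37 °C, 5% CO2. Cell number counted by Coulter counter; activity also expressed as % retained versus uninfected cells.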

L1210/TK^− = test: Cytostatic assay, thymidine kinase-deficient L1210/TK^− cells; assay type: cell-based, murine
[1] = Homo sapiens, CCRF-CEM, Table 1
[2] = Homo sapiens, CCRF-CEM, Table 6
[3] = Homo sapiens, CEM-TK(-), Table 1
[4] = Homo sapiens, CEM-TK(-), Table 6
[5] = Mus musculus, L1210/0, Table 1, read-out: CC50 L1210/0
[6] = Mus musculus, L1210/0, Table 2, mycoplasma negative cells, read-out: CC50 L1210
[7] = Mus musculus, L1210/0, Table 6, read-out: IC50 L1210/0
[8] = Mus musculus, L1210/0, Table 7, read-out: IC50 L1210/0
[9] = Mus musculus, L1210, read-out: IC50 L1210.Hyor
[10] = Mus musculus, L1210, Table 1, read-out: CC50 L1210/TK^−
[11] = Mus musculus, L1210, Table 6, read-out: IC50 L1210/TK^−
[12] = Table 6, read-out: IC50 L1210/0
[13] = Table 7, read-out: IC50 L1210/0
[14] = read-out: IC50 L1210.Hyor, Table 7
[15] = Table 6, read-out: IC50 L1210/TK^−

| SMILES | CC50 (HeLa/TK^−; Homo sapiens, HeLa, Table 1) | IC50 (HeLa/TK^−; Homo sapiens, HeLa, Table 6) | CC50 (Cem/0; [1]) | IC50 (Cem/0; [2]) | CC50 (Cem/TK^−; [3]) | IC50 (Cem/TK^−; [4]) | CC50 (HeLa; Homo sapiens, HeLa, Table 1) | IC50 (HeLa; Homo sapiens, HeLa, Table 6) | CC50 (L1210/0; [5]) | CC50 (L1210/0; [6]) | IC50 (L1210/0; [7]) | IC50 (L1210/0; [8]) | % Retention (L1210.Hyor) | CC50 (L1210.Hyor; Mus musculus) | IC50 (L1210.Hyor; [9]) | IC50(L1210.Hyor)/IC50(L1210/0) (L1210.Hyor; Table 7) | CC50 (L1210/TK^−; [10]) | IC50 (L1210/TK^−; [11]) | IC50 (HeLa/TK^−; Table 6) | IC50 (Cem/0; Table 6) | other results |
| --- | --- | --- | --- | --- | --- | --- | --- | --- | --- | --- | --- | --- | --- | --- | --- | --- | --- | --- | --- | --- | --- |
| CCCCOC(=O)[C@H](C)NP(=O)(OC[C@H]1O[C@@H](n2cc(F)c(=O)[nH]c2=O)CC1O)Oc1cccc2ccccc12 (stereo partly drawn) [CPF 589, 5-Fluoro-2′-deoxyuridine-5′-O-[1-naphthyl-(butoxy-L-alaninyl)] phosphate] | 2700 ± 1500 nM | 2700 ± 1500 nM | 64 ± 7 nM | 64 ± 7 nM | 840 ± 600 nM | 840 ± 600 nM | 120 ± 20 nM | 120 ± 20 nM | 22 ± 4 nM | 20 nM | 22 ± 4 nM | 9.5 ± 2.1 nM | 32% | 63 nM | 21 ± 7.1 nM | 2.2 | 110 ± 60 nM | 110 ± 60 nM |  |  |  |
| CCCCCOC(=O)C(C)(C)NP(=O)(OCC1OC(n2cc(F)c(=O)[nH]c2=O)CC1O)Oc1cccc2ccccc12 (stereo not drawn) [Nap Pnt DMG] |  |  |  |  |  |  |  |  |  |  |  |  |  |  |  | 0.42 |  |  | 2300 ± 100 nM | 140 nM | IC50 (Cem/TK^−; Table 6): 5400 ± 1100 nM; IC50 (HeLa; Table 6): 120 ± 30 nM; IC50 (L1210/0; [12]): 37 ± 10 nM; IC50 (L1210/0; [13]): 45 ± 2.1 nM; IC50 (L1210.Hyor; [14]): 19 ± 2.8 nM; IC50 (L1210/TK^−; [15]): 300 ± 130 nM |
| CCCCCOC(=O)[C@H](C)NP(=O)(OC[C@H]1O[C@@H](n2cc(F)c(=O)[nH]c2=O)CC1O)Oc1cccc2ccccc12 (stereo partly drawn) [CPF 581, 5-Fluoro-2′-deoxyuridine-5′-O-[1-naphthyl-(pentoxy-L-alaninyl)] phosphate] | 440 ± 350 nM | 440 ± 350 nM | 15 ± 6 nM | 15 ± 6 nM | 280 ± 40 nM | 280 ± 40 nM | 29 ± 23 nM | 29 ± 23 nM | 2.8 ± 1 nM | 3.7 nM | 2.8 ± 1 nM | 2.1 ± 0.07 nM | 22% | 17 nM | 6 ± 1.4 nM | 2.9 | 130 ± 130 nM | 130 ± 130 nM |  |  |  |
| C[C@H](NP(=O)(OC[C@H]1O[C@@H](n2cc(F)c(=O)[nH]c2=O)C[C@@H]1O)Oc1ccccc1)C(=O)OC1CCCCC1 (stereo partly drawn) [CPF 508, 5-Fluoro-2′deoxyuridine-5′-O-[phenyl (cyclohexoxy-L-alaninyl)] phosphate] |  |  |  |  |  |  |  |  |  |  |  |  |  |  |  | 1.25 |  |  | 5900 ± 400 nM | 170 ± 70 nM | IC50 (Cem/TK^−; Table 6): 1200 ± 10 nM; IC50 (HeLa; Table 6): 180 ± 50 nM; IC50 (L1210/0; [12]): 39 ± 1 nM; IC50 (L1210/0; [13]): 32 ± 5 nM; IC50 (L1210.Hyor; [14]): 40 ± 16 nM; IC50 (L1210/TK^−; [15]): 140 ± 20 nM |
| C[C@H](NP(=O)(OC[C@H]1O[C@@H](n2cc(F)c(=O)[nH]c2=O)CC1O)Oc1cccc2ccccc12)C(=O)OCC(C)(C)C (stereo partly drawn) [CPF 588, 5-Fluoro-2′-deoxyuridine-5′-O-[1-naphthyl-(2,2-dimethylpropoxy-L-alaninyl)] phosphate] | 32000 ± 26000 nM | 32000 ± 26000 nM | 490 ± 50 nM | 490 ± 50 nM | 6700 ± 1000 nM | 6700 ± 1000 nM | 700 ± 110 nM | 700 ± 110 nM | 270 ± 110 nM | 237 nM | 270 ± 110 nM | 93 ± 33 nM | 61% | 390 nM | 180 ± 69 nM | 1.9 | 1200 ± 700 nM | 1200 ± 700 nM |  |  |  |
| CC(C)CC(NP(=O)(OCC1OC(n2cc(F)c(=O)[nH]c2=O)CC1O)Oc1ccccc1)C(=O)OCc1ccccc1 (stereo not drawn) [Ph Bn Leu] |  |  |  |  |  |  |  |  |  |  |  |  |  |  |  | 3.2 |  |  | 5600 ± 300 nM | 240 ± 40 nM | IC50 (Cem/TK^−; Table 6): 16000 ± 1000 nM; IC50 (HeLa; Table 6): 67 ± 42 nM; IC50 (L1210/0; [12]): 44 ± 25 nM; IC50 (L1210/0; [13]): 54 ± 2.1 nM; IC50 (L1210.Hyor; [14]): 170 ± 47 nM; IC50 (L1210/TK^−; [15]): 2000 ± 300 nM |
| CCCOC(=O)C(C)NP(=O)(OCC1OC(n2cc(F)c(=O)[nH]c2=O)CC1O)Oc1cccc2ccccc12 (stereo not drawn) [Nap Pr Ala] |  |  |  |  |  |  |  |  |  |  |  |  |  |  |  | 1.2 |  |  | 2500 ± 100 nM | 140 ± 10 nM | IC50 (Cem/TK^−; Table 6): 1100 ± 200 nM; IC50 (HeLa; Table 6): 110 ± 30 nM; IC50 (L1210/0; [12]): 21 ± 12 nM; IC50 (L1210/0; [13]): 30 ± 0.35 nM; IC50 (L1210.Hyor; [14]): 36 ± 6.4 nM; IC50 (L1210/TK^−; [15]): 160 ± 70 nM |
| C[C@H](NP(=O)(OC[C@H]1O[C@@H](n2cc(F)c(=O)[nH]c2=O)CC1O)Oc1cccc2ccccc12)C(=O)OCC1CC1 (stereo partly drawn) [CPF 579, 5-Fluoro-2′-deoxyuridine-5′-O-[1-naphthyl-(cyclopropylmethanoxy-L-alaninyl)] phosphate] | 1400 ± 400 nM | 1400 ± 400 nM | 59 ± 17 nM | 59 ± 17 nM | 1100 ± 200 nM | 1100 ± 200 nM | 68 ± 1 nM | 68 ± 1 nM | 17 ± 7 nM | 19 nM | 17 ± 7 nM | 14 ± 4.2 nM | 42% | 45 nM | 31 ± 6.4 nM | 2.2 | 120 ± 60 nM | 120 ± 60 nM |  |  |  |
| O=C(OCc1ccccc1)C1CCCN1P(=O)(OC[C@H]1O[C@@H](n2cc(F)c(=O)[nH]c2=O)CC1O)Oc1ccccc1 (stereo partly drawn) [CPF 583, 5-Fluoro-2′-deoxyuridine-5′-O-[phenyl(benzoxy-L-prolinyl)] phosphate] |  |  |  |  |  |  |  |  |  |  |  |  | 3.3% | 11900 nM | 18000 ± 710 nM | 51 |  |  |  |  | CC50 (HeLa/TK^−; Homo sapiens, HeLa): 20000 ± 11000 nM; IC50 (HeLa/TK^−; Homo sapiens, HeLa): 20000 ± 11000 nM; CC50 (Cem/0; Homo sapiens, CCRF-CEM): 980 ± 400 nM; IC50 (Cem/0; Homo sapiens, CCRF-CEM): 980 ± 400 nM; CC50 (Cem/TK^−; Homo sapiens, CEM-TK(-)): 28000 ± 8000 nM; IC50 (Cem/TK^−; Homo sapiens, CEM-TK(-)): 28000 ± 8000 nM; CC50 (HeLa; Homo sapiens, HeLa): 1100 ± 400 nM; IC50 (HeLa; Homo sapiens, HeLa): 1100 ± 400 nM; CC50 (L1210/0; Mus musculus, L1210/0, read-out: CC50 L1210): 387 nM; CC50 (L1210/0; Mus musculus, L1210/0, read-out: CC50 L1210/0): 350 ± 70 nM; IC50 (L1210/0; Mus musculus, L1210/0, read-out: IC50 L1210/0, Table 6): 350 ± 70 nM; IC50 (L1210/0; Mus musculus, L1210/0, read-out: IC50 L1210/0, Table 7): 350 ± 22 nM; CC50 (L1210/TK^−; Mus musculus, L1210, read-out: CC50 L1210/TK^−): 31000 ± 5000 nM; IC50 (L1210/TK^−; Mus musculus, L1210, read-out: IC50 L1210/TK^−): 31000 ± 5000 nM |
